Patent US20240067693A1, “POLYPEPTIDES AND USES THEREOF” (MEDIMMUNE LIMITED, priority 2020, published 2024)
Numbered stars: 1 amine (or outer) side, 2 acyl side, 3 side chain; on linkers, the order of the positions; unused ones are H or OH. Bridge positions count the residues as written; N and C are the ends. Square brackets hold non-standard residues; d marks the D form. Side chains are listed from the residue outwards. Peptide text beside a SMILES is read from it. * marks the point of attachment. C18 diacid = O=C(O)CCCCCCCCCCCCCCCCC(=O)*; γGlu = O=C(O)[C@H](CCC(=O)[*:2])N[*:1]; Aib = CC(C)(N)C(=O)O

Experiments:
[1] = molecular target: T1, human calcitonin receptor (hCTR) (Homo sapiens, UniProt P30988); assay: cAMP production in 1321N1 cells with stable recombinant expression of human calcitonin receptor (hCTR); assay type: cell-based; details: cAMP, 1321N1 cells, assay buffer with 0.1% BSA; read-out: EC50 (pM) hCTR
T1 construct: expressed in transfected cells
T1 sequence (P30988 25-474): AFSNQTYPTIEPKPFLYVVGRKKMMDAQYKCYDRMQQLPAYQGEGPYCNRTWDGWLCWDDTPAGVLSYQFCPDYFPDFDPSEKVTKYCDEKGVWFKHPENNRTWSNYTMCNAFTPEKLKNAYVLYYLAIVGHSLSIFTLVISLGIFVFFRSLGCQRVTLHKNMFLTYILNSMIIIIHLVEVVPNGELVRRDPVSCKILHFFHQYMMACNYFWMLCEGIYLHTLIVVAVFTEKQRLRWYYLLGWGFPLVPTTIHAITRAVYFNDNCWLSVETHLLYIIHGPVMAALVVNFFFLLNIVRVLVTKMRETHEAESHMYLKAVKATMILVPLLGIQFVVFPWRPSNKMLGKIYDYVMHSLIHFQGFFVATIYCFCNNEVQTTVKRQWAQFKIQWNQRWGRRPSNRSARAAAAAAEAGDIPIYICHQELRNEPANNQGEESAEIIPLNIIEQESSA
Method in brief: (§1)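 Receptor-expressing cells (human receptors in 1321N1, rat receptors in HEK) incubated 30 min at room temperature with peptide in HBSS/HEPES pH 7.4, 0.1% BSA, 0.5 mM IBMX. cAMP read by HTRF; EC50 from 4-parameter fit as % of maximal amylin or calcitonin response.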

[2] = molecular target: T2, rat calcitonin receptor (rat CTR) (Rattus norvegicus, UniProt P32214); assay: cAMP production in HEK cells with stable recombinant expression of rat calcitonin receptor (rat CTR); assay type: cell-based; details: assay buffer with 0.1% BSA
T2 construct: expressed in transfected cells
T2 sequence (P32214 25-516): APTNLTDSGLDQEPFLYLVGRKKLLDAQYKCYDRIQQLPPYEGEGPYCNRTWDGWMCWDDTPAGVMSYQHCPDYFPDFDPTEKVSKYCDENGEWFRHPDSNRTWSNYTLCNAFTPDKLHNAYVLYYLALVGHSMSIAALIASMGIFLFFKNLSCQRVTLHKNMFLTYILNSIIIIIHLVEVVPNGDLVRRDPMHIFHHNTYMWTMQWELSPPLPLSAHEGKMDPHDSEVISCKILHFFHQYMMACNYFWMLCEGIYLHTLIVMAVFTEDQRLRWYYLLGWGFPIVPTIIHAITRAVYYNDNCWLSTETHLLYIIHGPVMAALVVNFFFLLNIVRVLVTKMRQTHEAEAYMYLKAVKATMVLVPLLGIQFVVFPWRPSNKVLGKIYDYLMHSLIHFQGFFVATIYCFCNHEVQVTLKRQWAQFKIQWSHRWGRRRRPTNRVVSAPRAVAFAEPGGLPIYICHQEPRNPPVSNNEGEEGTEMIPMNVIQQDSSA
Method in brief: as §1

[3] = Pharmacokinetic determination via IV and SC administration in Sprague Dawley rats; details: male, rat, plasma, 20 nmol/kg
[4] = molecular target: T3, human amylin receptor (calcitonin receptor co-expressed with receptor activity modifying protein, RAMP3) (hAMYR3) (Homo sapiens, UniProt O60896+P30988); assay: cAMP production in 1321N1 cells with stable recombinant expression of human amylin receptor (hAMYR3); assay type: cell-based; details: for Ratio (selectivity hAMYR vs hCTR, ratio of EC50 values at the two receptors): EC50 hCTR / EC50 hAMYR3; for EC50: cAMP, 1321N1 cells, assay buffer with 0.1% BSA, read-out: EC50 (pM) hAMYR3
T3 construct: expressed in transfected cells
T3 sequence (P30988 25-474): T1 sequence (P30988 25-474)
T3 sequence (O60896 24-148 partner): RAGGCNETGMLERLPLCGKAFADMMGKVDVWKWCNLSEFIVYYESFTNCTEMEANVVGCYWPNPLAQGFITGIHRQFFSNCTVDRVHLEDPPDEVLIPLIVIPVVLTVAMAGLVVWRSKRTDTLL
Method in brief: as §1

SMILES | EC50 [1] | EC50 [2] | half-life ([3]; iv) | half-life ([3]; sc) | Ratio (selectivity hAMYR vs hCTR, ratio of EC50 values at the two receptors) [4] | EC50 [4]
CC[C@H](C)[C@H](NC(=O)[C@@H]1CCCN1C(=O)CNC(=O)[C@H](Cc1ccccc1)NC(=O)[C@H](CC(N)=O)NC(=O)C(C)(C)NC(=O)[C@H](CO)NC(=O)[C@H](CO)NC(=O)[C@H](Cc1c[nH]cn1)NC(=O)[C@H](CCCNC(=N)N)NC(=O)[C@H](CC(C)C)NC(=O)[C@H](Cc1ccccc1)NC(=O)[C@H](CC(N)=O)NC(=O)[C@H](C)NC(=O)[C@H](CC(C)C)NC(=O)[C@H](CCCNC(=N)N)NC(=O)[C@H](CCC(N)=O)NC(=O)[C@@H](NC(=O)[C@H](C)NC(=O)[C@@H]1CSSC[C@H](NC(=O)[C@@H](N)CCCCNC(=O)CC[C@H](NC(=O)CCCCCCCCCCCCCCCCC(=O)O)C(=O)O)C(=O)N[C@@H](CC(N)=O)C(=O)N[C@@H]([C@@H](C)O)C(=O)N[C@@H](C)C(=O)N[C@@H]([C@@H](C)O)C(=O)N1)[C@@H](C)O)C(=O)N[C@@H](CC(C)C)C(=O)N1CCC[C@H]1C(=O)N1CCC[C@H]1C(=O)N[C@H](C(=O)N[C@@H](CCC(=O)O)C(=O)N[C@H](C(=O)NCC(=O)N[C@@H](CO)C(=O)N[C@@H](CC(N)=O)C(=O)N[C@H](C(=O)N[C@@H](Cc1ccc(O)cc1)C(N)=O)[C@@H](C)O)C(C)C)[C@@H](C)O [Peptide 44, K(γE-C18diacid)[CNTATC]ATQRLANFLRHSS(Aib)NFGPILPPTEVGSNTY-amide] (H-K([γGlu-C18 diacid])CNTATCATQRLANFLRHSS[Aib]NFGPILPPTEVGSNTY-NH2; disulfide 2-7; N-terminus assumed) | 6260 pM | 2240 pM | 8.9 h | 11 h | 22 | 284 pM
CC[C@H](C)[C@H](NC(=O)[C@@H]1CCCN1C(=O)CNC(=O)[C@H](Cc1ccccc1)NC(=O)[C@H](CC(N)=O)NC(=O)C(C)(C)NC(=O)[C@H](CO)NC(=O)[C@H](CO)NC(=O)[C@H](Cc1c[nH]cn1)NC(=O)[C@H](CCCNC(=N)N)NC(=O)[C@H](CC(C)C)NC(=O)[C@H](Cc1ccccc1)NC(=O)[C@H](CC(N)=O)NC(=O)[C@H](C)NC(=O)[C@H](CC(C)C)NC(=O)[C@H](CCCNC(=N)N)NC(=O)[C@H](CCC(N)=O)NC(=O)[C@@H](NC(=O)[C@H](C)NC(=O)[C@@H]1CSSC[C@H](NC(=O)[C@@H](N)CCCCNC(=O)CC[C@H](NC(=O)CCCCCCCCCCCCCCCCC(=O)O)C(=O)O)C(=O)N[C@@H](CC(N)=O)C(=O)N[C@@H]([C@@H](C)O)C(=O)N[C@@H](C)C(=O)N[C@@H]([C@@H](C)O)C(=O)N1)[C@@H](C)O)C(=O)N[C@@H](CC(C)C)C(=O)N1CCC[C@H]1C(=O)N1CCC[C@H]1C(=O)N[C@H](C(=O)N[C@@H](CC(N)=O)C(=O)N[C@H](C(=O)NCC(=O)N[C@@H](CO)C(=O)N[C@@H](CC(N)=O)C(=O)N[C@H](C(=O)N[C@@H](Cc1ccc(O)cc1)C(N)=O)[C@@H](C)O)C(C)C)[C@@H](C)O [Peptide 48, K(γE-C18diacid)[CNTATC]ATQRLANFLRHSS(Aib)NFGPILPPTNVGSNTY-amide] (H-K([γGlu-C18 diacid])CNTATCATQRLANFLRHSS[Aib]NFGPILPPTNVGSNTY-NH2; disulfide 2-7; N-terminus assumed) | 5270 pM | 2430 pM | 5.6 h | 8.1 h | 42 | 126 pM
CC[C@H](C)[C@H](NC(=O)[C@@H]1CCCN1C(=O)CNC(=O)[C@H](Cc1ccccc1)NC(=O)[C@H](CC(N)=O)NC(=O)[C@H](CC(N)=O)NC(=O)[C@H](CO)NC(=O)[C@H](CO)NC(=O)[C@H](Cc1c[nH]cn1)NC(=O)C(C)(C)NC(=O)[C@H](CC(C)C)NC(=O)[C@H](Cc1ccccc1)NC(=O)[C@H](CC(N)=O)NC(=O)[C@H](C)NC(=O)[C@H](CC(C)C)NC(=O)[C@H](CCCNC(=N)N)NC(=O)[C@H](CCC(N)=O)NC(=O)[C@@H](NC(=O)[C@H](C)NC(=O)[C@@H]1CSSC[C@H](NC(=O)[C@H](CCCCN)NC(=O)[C@@H](N)CCCCNC(=O)CC[C@H](NC(=O)CCCCCCCCCCCCCCCCC(=O)O)C(=O)O)C(=O)N[C@@H](CC(N)=O)C(=O)N[C@@H]([C@@H](C)O)C(=O)N[C@@H](C)C(=O)N[C@@H]([C@@H](C)O)C(=O)N1)[C@@H](C)O)C(=O)N[C@@H](CC(C)C)C(=O)N1CCC[C@H]1C(=O)N1CCC[C@H]1C(=O)N[C@H](C(=O)N[C@@H](CC(N)=O)C(=O)N[C@H](C(=O)NCC(=O)N[C@@H](CO)C(=O)N[C@@H](CC(N)=O)C(=O)N[C@H](C(=O)N[C@@H](Cc1ccc(O)cc1)C(N)=O)[C@@H](C)O)C(C)C)[C@@H](C)O [Peptide 129] (H-K([γGlu-C18 diacid])KCNTATCATQRLANFL[Aib]HSSNNFGPILPPTNVGSNTY-NH2; disulfide 3-8; N-terminus assumed) | 5750 pM | 2870 pM | 10.3 h | 9 h | 10.4 | 553 pM
